Measured values reported in US6262065A (priority 1998, dated 2001).

Assays:
[1] = target: T1, α-mannosidase (jack bean) (Canavalia ensiformis, UniProt C0HJB3); assay: inhibition of α-mannosidase (jack bean), colorimetric release of p-nitrophenol from p-nitrophenyl α-D-mannopyranoside; assay type: biochemical; settings: initial screening
T1 construct: purchased Sigma Chemical Co
T1 sequence (C0HJB3 1-562 limits assumed): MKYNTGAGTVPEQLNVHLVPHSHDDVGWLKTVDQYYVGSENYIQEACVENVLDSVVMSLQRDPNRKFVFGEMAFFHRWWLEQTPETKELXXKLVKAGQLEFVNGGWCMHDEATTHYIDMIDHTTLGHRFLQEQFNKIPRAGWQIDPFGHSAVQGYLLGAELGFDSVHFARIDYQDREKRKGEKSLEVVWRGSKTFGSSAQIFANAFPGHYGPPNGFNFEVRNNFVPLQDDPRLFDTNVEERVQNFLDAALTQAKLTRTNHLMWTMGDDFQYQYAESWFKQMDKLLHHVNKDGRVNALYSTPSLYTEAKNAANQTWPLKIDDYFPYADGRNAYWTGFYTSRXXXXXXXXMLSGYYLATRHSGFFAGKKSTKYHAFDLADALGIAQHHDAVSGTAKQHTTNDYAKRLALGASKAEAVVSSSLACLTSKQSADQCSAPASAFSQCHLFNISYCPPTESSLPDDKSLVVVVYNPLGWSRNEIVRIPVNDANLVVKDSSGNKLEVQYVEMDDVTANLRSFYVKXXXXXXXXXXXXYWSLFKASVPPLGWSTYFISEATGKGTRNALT
T1 sequence (C0HJB3 563-981 limits assumed): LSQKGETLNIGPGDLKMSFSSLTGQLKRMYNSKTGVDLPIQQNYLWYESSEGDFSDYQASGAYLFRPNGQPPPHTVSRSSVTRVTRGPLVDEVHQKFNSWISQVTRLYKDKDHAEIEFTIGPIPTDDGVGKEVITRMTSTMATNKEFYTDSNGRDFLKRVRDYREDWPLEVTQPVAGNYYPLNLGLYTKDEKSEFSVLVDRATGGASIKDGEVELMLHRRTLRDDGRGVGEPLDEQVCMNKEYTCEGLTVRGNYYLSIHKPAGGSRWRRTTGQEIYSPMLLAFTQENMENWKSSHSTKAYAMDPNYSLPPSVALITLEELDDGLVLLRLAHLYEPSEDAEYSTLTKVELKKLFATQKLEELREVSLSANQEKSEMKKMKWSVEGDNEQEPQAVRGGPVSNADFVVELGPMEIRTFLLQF
Procedure: The enzyme α-mannosidase (from jack bean) and the corresponding p-nitrophenyl α-D-mannopyranoside substrate was obtained from Sigma Chemical Co. Enzyme inhibition was assayed colorimetrically by monitoring the release of p-nitrophenol from p-nitrophenyl α-D-mannopyranoside according to the procedure described by Tropea, et. al. (Tropea, J. E., et al, Biochemistry, Vol. 28, pp. 2027-2034 (1989)).

[2] = tested on: amyloglucosidase; settings: cited from earlier work
[3] = tested on: glucosidase I; settings: cited from earlier work
[4] = tested on: HIV; settings: cited from earlier work
[5] = tested on: mannosidases including the glycoprotein processing enzyme mannosidase II; settings: many mannosidases including mannosidase II; cited from earlier work

| Structure (SMILES) | IC50 [1] [µM] | inhibition of amyloglucosidase [2] | inhibition of glucosidase I [3] | other results |
| --- | --- | --- | --- | --- |
| OC[C@@H]1[C@@H](O)[C@@H](O)[C@H]2[C@H](O)CCCN21 [(VII), (1S,2R,3R,8R,8aR)-3-(Hydroxymethyl)-1,2,8-trihydroxyindolizidine] | 1.2 | – | – | – |
| OC[C@H]1[C@@H](O)[C@@H](O)[C@H]2[C@H](O)CCCN21 [(VIII), (1S,2R,3S,8R,8aR)-3-(Hydroxymethyl)-1,2,8-trihydroxyindolizidine] | 45 | – | – | – |
| OCC1C(O)C(O)C2C(O)CCN12 (stereo not shown) [compound 1] | – | good inhibitors | good inhibitors | – |
| OCC1C(O)C(O)C2C(O)CCN12 (stereo not shown) [compound 3] | – | good inhibitors | good inhibitors | – |
| OCC1C(O)C(O)C2C(O)CCN12 (stereo not shown) [compound 4] | – | good inhibitors | good inhibitors | anti-HIV activity [4]: shows anti-HIV activity |
| O[C@H]1[C@H]2[C@H](O)CCCN2C[C@H]1O [swainsonine, (-)-swainsonine] | – | – | – | inhibition of mannosidases [5]: potent inhibitor |
